Measurements: US10813896B2, “Treatment of intrahepatic cholestatic diseases” (CymaBay Therapeutics, Inc., priority 2017, dated 2020)
Where two headings read alike, the source gives them in different places. Blank lines part the entries; values can stand above or below the molecule they belong to.

Tests used:
subjects with PBC [1] = assay: Low-dose trial in PBC (NCT02955602); type: in vivo, human
Method: In the main study, running for 12 weeks, subjects were to receive either 2, 5, or 10 mg/day; while in an extension study, running for an additional 40 weeks, subjects in the 2 mg/day group were allowed to continue at the 2 mg/day dose or shift to either 5 or 10 mg/day, subjects in the 5 mg/day group were allowed to continue at the 5 mg/day dose or shift to 10 mg/day, and subjects in the 10 mg/day group were allowed to continue at the 10 mg/day dose or shift to 5 mg/day. At baseline (the mean of the screening values and the value at day 1), the subjects had the following values, with numbers in parentheses denoting standard deviations: The study has now been analyzed through 26 weeks: the 12 weeks of the main study and 14 weeks of the extension study.

subjects with PBC [2] = assay: High dose trial in PBC (NCT02609048); type: in vivo, human; settings: for cases of asymptomatic increases in transaminases: reversible on cessation of treatment, no elevation of TBIL; for mean decrease from baseline in ALP: last observation carried forward, at least two weeks of treatment; for reduction of LDL-C: after two weeks of dosing
Source text: The trial subjects were adult, male or female, with a diagnosis of PBC by at least two of the following three criteria: (a) a history of alkaline phosphatase (ALP) above the upper limit of normal (ULN) for at least six months, (b) positive anti-mitochondrial antibody titers >1/40 on immunofluorescence or M2 positive by enzyme linked immunosorbent assay or positive PBC-specific antinuclear antibodies, and (c) documented liver biopsy result consistent with PBC, on a stable and recommended dose of UDCA for the past twelve months or UDCA intolerant, and ALP≥1.67×ULN. Exclusion criteria included AST or ALT≥3×ULN, total bilirubin (TBIL)≥2×ULN, autoimmune hepatitis or a history of chronic viral hepatitis, PSC, the current use of fibrates or simvastatin, the use of colchicine, methotrexate, azathioprine, or systemic steroids in the previous two months, the use of an experimental treatment for PBC, and the use of an experimental or unapproved immunosuppressant. The primary study endpoint was decrease in ALP, and the secondary endpoint was the responder rate for subjects achieving ALP<1.67×ULN and total bilirubin within normal limit, and >15% decrease in ALP. Additional secondary endpoints were changes in GGT, TBIL, and 5′-nucleotidase, which are other recognized biochemical markers of cholestasis. […] During the study, three cases of asymptomatic increases in transaminases were observed (two in the 200 mg and one in the 50 mg groups). All three were reversible on cessation of treatment and were not accompanied by elevation of TBIL. Since the study had already shown a clear efficacy signal, the study was discontinued. […] According to the original statistical plan, changes in ALP were calculated using the last observation carried forward. The mean decreases from baseline in ALP for the 50 mg/day and 200 mg/day dose groups were 57% and 62%, respectively, compared with 0.37% for placebo (p<0.0001 for both). The responder rates for the placebo, 50 mg/day, and 200 mg/day groups were 10%, 67% and 100%, respectively, despite the baseline ALP levels being different at 239, 313, and 280 U/L. The p-values comparing the responder rates for the 50 mg/day and 200 mg/day groups with placebo were 0.020 and 0.0004 (Fisher's Exact Test), respectively.

PPARα = target: T1, PPARα (Homo sapiens, UniProt Q07869); settings: PPARδ vs PPARα; cited from earlier work
T1 sequence (Q07869 1-468): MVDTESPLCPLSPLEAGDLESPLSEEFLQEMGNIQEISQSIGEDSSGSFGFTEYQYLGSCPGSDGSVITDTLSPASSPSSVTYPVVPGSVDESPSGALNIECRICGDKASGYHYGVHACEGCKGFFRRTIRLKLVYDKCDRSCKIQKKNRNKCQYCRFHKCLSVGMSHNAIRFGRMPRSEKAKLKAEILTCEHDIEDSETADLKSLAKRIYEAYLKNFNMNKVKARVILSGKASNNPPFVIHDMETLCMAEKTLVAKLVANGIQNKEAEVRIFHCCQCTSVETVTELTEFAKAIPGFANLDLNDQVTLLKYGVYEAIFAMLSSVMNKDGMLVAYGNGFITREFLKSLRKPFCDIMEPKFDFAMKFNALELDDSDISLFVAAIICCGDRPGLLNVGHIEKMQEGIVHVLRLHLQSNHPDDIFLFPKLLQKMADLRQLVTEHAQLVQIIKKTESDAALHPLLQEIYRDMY

[3] = system: subjects with an intrahepatic cholestatic disease such as PSC; assay: Trial in PSC; type: in vivo, human; settings: 1, 2, 5, and 10 mg/day oral
Method: Subjects are permitted their usual other medications, including UDCA. […] At each visit, after a 12-hour fast, blood is drawn and urine collected; and a standard metabolic panel, complete blood count, and standard urinalysis are performed. Blood is analyzed for TC, HDL-C, TG, VLDL-C, LDL-C, and apolipoprotein B, for liver function markers such as total and bone-specific ALP, for GGT, and also for total and conjugated bilirubin. The subjects also maintain health diaries, which are reviewed at each visit.

[4] = Preclinical study of elimination; type: in vivo
[5] = Exposure study in hepatic impairment (Child-Pugh classes B and C); type: in vivo, human; settings: subjects with significant hepatic impairment
Source text: These amounts represent an average daily dose, and not necessarily an amount given at a single dose. Dosing may be as frequent as more than once/day (where the amount, or daily dose, will be divided between the number of administrations per day), but will more typically be once/day (where the amount is given in a single administration). Optionally, particularly in cases of significant hepatic impairment, the dosing may be less frequent than once/day, such as between once/week and every other day, for example once/week, twice/week (especially with the doses at least three days apart), three times/week (especially with the doses at least two days apart), or every other day; so that, as an example, a subject may receive 5 mg twice/week for an amount (daily dose) of 1.4 mg/day.

[6] = system: subjects with mixed dyslipidemia; settings: 8 weeks, cited from earlier work
[7] = combined 5 mg/day and 5 to 10 mg/day group, 26 weeks
[8] = through 26 weeks, 2, 5, 10 mg/day
[9] = seladelpar 50 or 100 mg alone or combined with ATV 20 mg, once daily oral, compared to placebo

signals for drug-induced pruritus (subjects with PBC [1]; [8]): no signals for drug-induced pruritus | cases of asymptomatic increases in transaminases (subjects with PBC [2]; 50 mg group): one | cases of asymptomatic increases in transaminases (subjects with PBC [2]; 200 mg group): two | concentration of the drug in bile [4]: concentrated in bile | main route of elimination [4]: through bile | area-under-the-curve exposure for seladelpar and two of its three principal metabolites [5]: increase | maximum plasma concentration of seladelpar [5]: significant increase
Structure (SMILES): CCO[C@H](COc1ccc(C(F)(F)F)cc1)CSc1ccc(OCC(=O)O)c(C)c1 [seladelpar, [4-({(2R)-2-ethoxy-3-[4-(trifluoromethyl)phenoxy]propyl}sulfanyl)-2-methylphenoxy] acetic acid]
mean reduction in ALP (subjects with PBC [1]; 2 mg/day, 12 weeks): 21% | mean reduction in ALT (subjects with PBC [1]; 2 mg/day, 12 weeks): 9% | mean reduction in ALP (subjects with PBC [1]; 5 mg/day, 12 weeks): 33% | mean reduction in ALT (subjects with PBC [1]; 5 mg/day, 12 weeks): 28% | mean reduction in ALP (subjects with PBC [1]; 5 mg/day, 26 weeks): 45% | mean reduction in ALT (subjects with PBC [1]; 10 mg/day group, 26 weeks): 43% | subjects with ALP≤1.67×ULN (subjects with PBC [1]; 10 mg/day group, 26 weeks): 79% | subjects with ALP≤ULN (subjects with PBC [1]; 10 mg/day group, 26 weeks): 32% | subjects with TBIL≤ULN (subjects with PBC [1]; 10 mg/day group, 26 weeks): 89% | subjects with a decrease in ALP of ≥15% (subjects with PBC [1]; 10 mg/day group, 26 weeks): 89% | mean reduction in ALP (subjects with PBC [1]; 10 mg/day, 12 weeks): 45% | mean reduction in ALT (subjects with PBC [1]; 10 mg/day, 12 weeks): 35% | mean reduction in ALP (subjects with PBC [1]; 10 mg/day, 26 weeks): 43% | mean reduction in ALP (subjects with PBC [1]; 5 to 10 mg/day, 26 weeks): 43% | mean reduction in ALT (subjects with PBC [1]; [7]): 40% | subjects with ALP≤1.67×ULN (subjects with PBC [1]; [7]): 68% | subjects with ALP≤ULN (subjects with PBC [1]; [7]): 26% | subjects with TBIL≤ULN (subjects with PBC [1]; [7]): 95% | subjects with a decrease in ALP of ≥15% (subjects with PBC [1]; [7]): 95% | transaminase safety signals (subjects with PBC [1]; [8]): No transaminase safety signals | serious adverse events (subjects with PBC [1]; through 26 weeks, all doses, all deemed unrelated to seladelpar): 6 | adverse events leading to seladelpar discontinuation (subjects with PBC [1]; through 26 weeks, all doses, both deemed unrelated to seladelpar): 2 | responder rate (ALP<1.67×ULN, total bilirubin within normal limit, >15% decrease in ALP) (subjects with PBC [2]; 50 mg/day): 67% | mean decrease from baseline in ALP (subjects with PBC [2]; 50 mg/day oral): 57% | reduction of LDL-C (subjects with PBC [2]; 50 mg/day): 16% | responder rate (ALP<1.67×ULN, total bilirubin within normal limit, >15% decrease in ALP) (subjects with PBC [2]; 200 mg/day): 100% | mean decrease from baseline in ALP (subjects with PBC [2]; 200 mg/day oral): 62% | reduction of LDL-C (subjects with PBC [2]; 200 mg/day): 26% | adverse events of pruritus (subjects with PBC [2]; on treatment, 50 and 200 mg/day): no adverse events of pruritus were reported on treatment | specificity compared with PPARα (PPARα): > 600 fold | improvement in disease, manifested by decrease in ALP and GGT [3]: improvement in their disease | reduction of LDL [6, 9]: 18-43% | reduction of apolipoprotein B-100 [6, 9]: 20-38% | reduction of free fatty acids [6, 9]: 16-28% | reduction of high-sensitivity C-reactive protein (hs-CRP) [6, 9]: 43-72% | reduction of non-HDL-C [6, 9]: 18-41% | reduction of triglycerides (TGs) [6, 9]: 26-30% | rise of HDL-C [6, 9]: 1-12% | number of patients with the metabolic syndrome and a preponderance of small LDL particles ([6]; seladelpar alone and in combination with ATV): reduced the number of patients with the metabolic syndrome and a preponderance of small LDL particles | reduction of ALP ([6]; seladelpar groups): 32-43% | reduction of GGT ([6]; seladelpar groups): 24-28%

Structure (SMILES): CC(C)c1c(C(=O)Nc2ccccc2)c(-c2ccccc2)c(-c2ccc(F)cc2)n1CC[C@@H](O)C[C@@H](O)CC(=O)O [ATV, atorvastatin, reference compound]
increase of GGT ([6]; ATV 20 mg group): 2% | reduction of ALP ([6]; ATV 20 mg group): 6%
